Results: patent publication US20160338955A1, “ANTIGEN-SPECIFIC IMMUNOTHERAPY USING TOLERIZING LIPOSOMES” (PLS-Design GmbH, priority 2015, published 2016)
Read-outs that look alike come from different tables or passages of the source.

Columns and labels:
[1] = tested on: calcium metabolism; settings: compared to 1,25-(OH)2D3; cited from earlier work
[2] = cited from earlier work
[3] = cited from earlier work; remark: listed apart in the source
[4] = rats; cited from earlier work
[5] = in vivo; cited from earlier work
[6] = cited from earlier work; remark: listed apart in the source
[7] = rodents; cited from earlier work
[8] = tested on: type 1 diabetes; settings: cited from earlier work
[9] = In vitro release of ATP from PLGA-PEG-PLGA hydrogels; type: physicochemical
Method: An aliquot of 20 μl of a 10 mM solution of ATP is combined with 160 μl of 25% gel solution of Example 4.1 and 20 μl of 10×PBS (final concentration of ATP is 1 mM). The mixture is incubated for 2 minutes at 37° C. to induce gelling and overlayed with 1 ml of 1×PBS. At frequent timepoints the supernatant is removed by pipetting and stored at 4° C. The removed supernatant is replaced by fresh 1 ml of 1×PBS. After 48 hours the samples are measured spectrometrically at 260 nm and the amount of released ATP is calculated as percentage of a reference sample containing a concentration of ATP equaling 100% release.

[10] = target: T1, P2X7 (Homo sapiens, UniProt Q99572); settings: read-out: EC50 for activation of P2X7; cited from earlier work
T1 sequence (Q99572 1-595): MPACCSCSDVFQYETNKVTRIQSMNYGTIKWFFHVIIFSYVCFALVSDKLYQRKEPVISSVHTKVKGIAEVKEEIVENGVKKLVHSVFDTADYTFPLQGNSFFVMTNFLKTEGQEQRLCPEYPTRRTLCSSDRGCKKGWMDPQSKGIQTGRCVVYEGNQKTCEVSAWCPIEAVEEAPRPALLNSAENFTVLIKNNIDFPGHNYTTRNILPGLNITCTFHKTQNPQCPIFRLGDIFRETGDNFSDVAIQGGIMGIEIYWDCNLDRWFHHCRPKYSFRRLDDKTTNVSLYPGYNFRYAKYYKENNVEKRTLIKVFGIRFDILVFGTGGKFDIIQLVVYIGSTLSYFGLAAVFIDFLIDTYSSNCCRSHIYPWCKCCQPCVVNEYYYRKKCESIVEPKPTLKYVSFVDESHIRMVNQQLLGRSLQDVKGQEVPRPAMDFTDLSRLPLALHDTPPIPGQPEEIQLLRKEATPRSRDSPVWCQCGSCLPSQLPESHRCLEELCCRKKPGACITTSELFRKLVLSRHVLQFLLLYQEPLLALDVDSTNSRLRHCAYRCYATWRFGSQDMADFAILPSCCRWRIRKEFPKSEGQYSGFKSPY

[11] = target: P2Y2 (Homo sapiens, UniProt P41231); settings: read-out: EC50 for activation of P2Y2; cited from earlier work
[12] = tested on: phagocytes; settings: cited from earlier work; for maximal migration of phagocytes (increase): at about 100 nM; for concentration effecting maximal migration of phagocytes: transwell migration assay
[13] = tested on: TNFR1-mediated activation of NF-κB; settings: high concentrations; cited from earlier work
[14] = tested on: rheumatoid arthritis; settings: 2 μg/day for 3 months, cited from earlier work
[15] = target: T2, murine CD22 (Mus musculus, UniProt P35329); settings: cited from earlier work
T2 sequence (P35329 22-868): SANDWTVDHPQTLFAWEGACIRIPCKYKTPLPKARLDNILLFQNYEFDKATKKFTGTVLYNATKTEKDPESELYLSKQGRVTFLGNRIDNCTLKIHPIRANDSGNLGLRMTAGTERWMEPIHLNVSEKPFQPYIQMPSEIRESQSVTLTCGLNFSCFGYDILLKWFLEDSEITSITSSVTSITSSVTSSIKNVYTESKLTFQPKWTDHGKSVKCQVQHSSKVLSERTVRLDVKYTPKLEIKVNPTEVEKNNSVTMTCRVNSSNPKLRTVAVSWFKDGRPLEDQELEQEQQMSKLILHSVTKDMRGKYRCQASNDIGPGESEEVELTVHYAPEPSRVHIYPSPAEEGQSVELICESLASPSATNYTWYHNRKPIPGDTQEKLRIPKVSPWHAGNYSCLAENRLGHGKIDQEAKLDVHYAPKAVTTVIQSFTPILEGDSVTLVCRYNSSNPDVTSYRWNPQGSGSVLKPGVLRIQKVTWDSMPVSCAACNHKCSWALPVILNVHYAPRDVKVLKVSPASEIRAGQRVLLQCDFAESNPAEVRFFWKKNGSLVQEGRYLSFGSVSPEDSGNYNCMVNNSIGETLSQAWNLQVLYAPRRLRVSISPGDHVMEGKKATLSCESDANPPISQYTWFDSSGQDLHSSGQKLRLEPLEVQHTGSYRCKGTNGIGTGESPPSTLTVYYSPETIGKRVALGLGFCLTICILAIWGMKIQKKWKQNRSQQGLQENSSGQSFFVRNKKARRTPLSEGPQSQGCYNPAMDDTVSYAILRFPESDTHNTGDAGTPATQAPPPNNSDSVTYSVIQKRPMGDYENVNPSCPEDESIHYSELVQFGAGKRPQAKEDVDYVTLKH

[16] = cited from earlier work; remark: listed apart in the source
[17] = tested on: human polymorphonuclear leukocyte (PMN) trans-endothelial migration; settings: equipotent to resolvin D1; read-out: EC50 of reduction of PMN trans-endothelial migration; cited from earlier work
[18] = tested on: leukocyte infiltration; settings: 100 ng dose; cited from earlier work
[19] = Release of DexP from PLGA-PEG-PLGA hydrogels; type: physicochemical
Method: The biodegradable PLGA-PEG-PLGA triblock polymer used in this example has a PLG/PEG weight ratio of 2.3 (70/30), and a lactide/glycolide molar ratio of approx. 15/1. Synthesis of the triblock copolymer is performed as described in Example 2.1. A 20 mM stock solution of DexP in PBS (10.3 mg/ml; MW 516.4; Sigma-Aldrich) is diluted 1:40 in PBS (final concentration: 0.5 mM), and 20 μl of the diluted stock solution is combined with 160 μl of 25% gel solution and 20 μl of 10×PBS (final concentration of DexP: 0.05 mM).
The mixture of 5.2.1 is incubated for 2 minutes at 37° C. to induce gelling and overlayed with 200 μl of 1×PBS. At frequent time points the supernatant is removed by pipetting and stored at 4° C. The removed supernatant is replaced by fresh 200 μl of 1×PBS. Controls of the same concentration of DexP in 1×PBS without gel are incubated and sampled in parallel.
Released DexP is determined with a spectrophotometric method (Singh and Verma, 2008). The method involves oxidation of the corticosteroid by iron (III) and subsequent complexation of iron (II) with potassium hexacynoferate (III), forming a bluish green coloured complex with maximum absorbance at 780 nm (Beer's law range: 10-50 μg/ml; molar absorptivity (M^−1cm^−1): for DexP 0.55×10^4).

[20] = cited from earlier work; remark: listed apart in the source

Chain of P2Y2 (P41231 whole entry, species assumed): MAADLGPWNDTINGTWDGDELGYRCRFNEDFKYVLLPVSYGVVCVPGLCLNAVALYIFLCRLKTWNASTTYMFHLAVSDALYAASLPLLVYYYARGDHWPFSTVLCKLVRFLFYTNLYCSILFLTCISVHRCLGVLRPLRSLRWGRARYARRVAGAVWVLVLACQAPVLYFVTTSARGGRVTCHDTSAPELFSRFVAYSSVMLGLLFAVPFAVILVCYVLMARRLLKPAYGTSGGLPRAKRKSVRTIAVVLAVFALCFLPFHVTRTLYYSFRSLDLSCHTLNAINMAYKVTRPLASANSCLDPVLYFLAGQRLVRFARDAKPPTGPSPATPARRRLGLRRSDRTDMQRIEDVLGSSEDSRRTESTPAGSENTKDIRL

Compound: C=C1/C(=C\C=C2/CCC[C@]3(C)[C@@H]([C@H](C)/C=C/[C@@H](O)C4CC4)CC[C@@H]23)C[C@@H](O)C[C@@H]1O [calcipotriol]
- effect on calcium metabolism, times less than 1,25-(OH)2D3 (calcitriol) [1]: 100-200 times
- rate of clearance, times higher than for 1,25-(OH)2D3 ([2]; compared to 1,25-(OH)2D3 / calcitriol): approximately 140 times
- detectable in serum by HPLC up to ([2]; i.v. injection of 10 μg/kg in rats): up to 5 min
- detectable in serum by HPLC up to ([2]; i.v. injection of 50 μg/kg in rats): up to 10 min
- applied dose absorbed systemically ([3]; applied to normal skin): 5%
- applied dose absorbed systemically ([3]; ointment applied topically to psoriasis plaques): approximately 6%
- single s.c. dose up to which no death occurred [4]: ≤ 540 μg/kg body weight

Compound: C[C@]12CCC(=O)C=C1CC[C@@H]1[C@@H]2C(=O)C[C@@]2(C)[C@H]1CC[C@]2(O)C(=O)CO [cortisone]
- glucocorticoid potency (in words) [5]: rather low potency

Compound: C[C@]12C=CC(=O)C=C1CC[C@H]1[C@@H]3C[C@@H](O)[C@](O)(C(=O)CO)[C@@]3(C)C[C@H](O)[C@@]12F [triamcinolone]
- glucocorticoid potency (in words) [5]: intermediate potency

Compound: C=C1CC[C@H](O)C/C1=C/C=C1\CCC[C@]2(C)[C@@H]([C@H](C)CCCC(C)(C)O)CC[C@@H]12 [calcidiol, 25-hydroxyvitamin D3]
- plasma calcidiol concentration producing vitamin D toxicity ([6]; Jones (2008)): above 0.75 μM
- calcidiol level at which toxicity occurs ([6]; Shephard and DeLuca (1980)): ≥ 500 ng/mL
- plasma calcidiol concentration tolerated with normocalcemia [7]: 250 to 1000 nM

Compound: C[C@]12C=CC(=O)C=C1CC[C@@H]1[C@@H]2[C@@H](O)C[C@@]2(C)[C@H]1CC[C@]2(O)C(=O)CO [prednisolone]
- glucocorticoid potency (in words) [5]: intermediate potency

Compound: C[C@]12CCC(=O)C=C1CC[C@@H]1[C@@H]2[C@@H](O)C[C@@]2(C)[C@H]1CC[C@]2(O)C(=O)CO [hydrocortisone]
- glucocorticoid potency (in words) [5]: rather low potency

Compound: vitamin D
- relative risk of type 1 diabetes ([8]; doses of exactly 50 μg/day): 0.22
- relative risk of type 1 diabetes ([8]; doses of over 50 μg/day (2000 IU/d) during infancy, subsequent 30 years): 0.14
- odds ratio of risk for T1D by age 15 ([8]; supplemented vs unsupplemented children): 0.67

Compound: Nc1ncnc2c1ncn2[C@@H]1O[C@H](COP(=O)(O)OP(=O)(O)OP(=O)(O)O)[C@@H](O)[C@H]1O [ATP]
- hydrogel-embedded ATP released ([9]; after 48 hours): approx. 75%
- further hydrogel-embedded ATP released ([9]; another, within the next 20 hours): 10%
- hydrogel-embedded ATP released ([9]; within the first 5 hours (initial burst)): approx. 50%
- EC50 [10]: > 100 µM
- EC50 [11]: < 1000 nM
- maximal migration of phagocytes (increase) [12]: threefold increase
- concentration effecting maximal migration of phagocytes [12]: about 100 nM

Compound: O=C([O-])c1ccccc1O.[Na+] [sodium salicylate]
- concentration inhibiting TNFR1-mediated activation of NF-κB [13]: 10 to 20 mM

Compound: C=C1/C(=C\C=C2/CCC[C@]3(C)[C@@H]([C@H](C)CCCC(C)C)CC[C@@H]23)C[C@@H](O)C[C@@H]1O [alfacalcidiol]
- patients with improvement of disease activity ([14]; on methotrexate): 89%
- patients going into remission [14]: 45%

Compound: 9-biphenylacetyl-N-glycolylneuraminic acid-α2-6-galactose-β1-4-N-acetylglucosamine-β-ethylamine [6′-^BPANeuGc]
- affinity for murine CD22, fold higher than natural ligand NeuGcα2-6Galβ1-4GlcNAc-β-ethylamine [15]: 200 fold

Compound: O=c1ccn([C@@H]2O[C@H](COP(=O)(O)OP(=O)(O)OP(=O)(O)O)[C@@H](O)[C@H]2O)c(=O)[nH]1 [UTP]
- maximal migration of phagocytes (increase) [12]: threefold increase
- concentration effecting maximal migration of phagocytes [12]: about 100 nM

Compound: C[C@@H]1C[C@H]2[C@@H]3CCC4=CC(=O)C=C[C@]4(C)[C@@]3(F)[C@@H](O)C[C@]2(C)[C@@]1(O)C(=O)CO [dexamethasone]
- plasma concentration of Dex ([16]; after 6 weeks (day 42)): 1 nM
- plasma concentration of Dex ([16]; around day 7 after i.v. 200 mg/day on three alternating days): 100 to 1000 nM

Compound: CC/C=C\C[C@@H](O)/C=C/C=C\C=C\C=C\[C@@H](O)[C@@H](O)C/C=C\CCC(=O)O [17(R)-Resolvin D1]
- EC50 [17]: ~30 nM
- maximal inhibition of leukocyte infiltration [18]: ~35%

Compound: C[C@@H]1C[C@H]2[C@@H]3CCC4=CC(=O)C=C[C@]4(C)[C@@]3(F)[C@@H](O)C[C@]2(C)[C@@]1(O)C(=O)COP(=O)(O)O [DexP, dexamethasone sodium phosphate]
- hydrogel-embedded DexP released ([19]; after 2 days): 80-90%
- hydrogel-embedded DexP released ([19]; within the first 6 hours): 30-50%
- solubility in PBS ([20]; PBS): at least 25 mg/ml
- solubility in 10 mM HEPES and 135 mM NaCl, pH 6.7 ([20]; pH 6.7): at least 50 mg/ml
- solubility in water ([20]; water, product information): 50 mg/mL
